Where two headings read alike, the source gives them in different places.
Columns and labels:
[1] = molecular target: T1, human recombinant HDAC1 (Homo sapiens, UniProt Q13547); assay: HDAC1 enzyme activity inhibition (HDAC Fluorimetric Drug Discovery Kit); type: biochemical; conditions: read-out: HDAC1
T1 construct: purchased Enzo Life Science, Inc. BML-SE456
Procedure, shortened: (§1)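 Five-fold compound dilutions incubated with […] recombinant enzyme and 10 μM fluorogenic Fluor de Lys substrate, 60 min at 30° C. Fluor de Lys Developer II then added for 30 min to generate the fluorescent read-out.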

[2] = molecular target: T2, human recombinant HDAC6 (Homo sapiens, UniProt Q9UBN7); assay: HDAC6 enzyme activity inhibition (HDAC Fluorimetric Drug Discovery Kit); type: biochemical
T2 construct: purchased Calbiochem Inc. 382180
T2 sequence (Q9UBN7 1-1215): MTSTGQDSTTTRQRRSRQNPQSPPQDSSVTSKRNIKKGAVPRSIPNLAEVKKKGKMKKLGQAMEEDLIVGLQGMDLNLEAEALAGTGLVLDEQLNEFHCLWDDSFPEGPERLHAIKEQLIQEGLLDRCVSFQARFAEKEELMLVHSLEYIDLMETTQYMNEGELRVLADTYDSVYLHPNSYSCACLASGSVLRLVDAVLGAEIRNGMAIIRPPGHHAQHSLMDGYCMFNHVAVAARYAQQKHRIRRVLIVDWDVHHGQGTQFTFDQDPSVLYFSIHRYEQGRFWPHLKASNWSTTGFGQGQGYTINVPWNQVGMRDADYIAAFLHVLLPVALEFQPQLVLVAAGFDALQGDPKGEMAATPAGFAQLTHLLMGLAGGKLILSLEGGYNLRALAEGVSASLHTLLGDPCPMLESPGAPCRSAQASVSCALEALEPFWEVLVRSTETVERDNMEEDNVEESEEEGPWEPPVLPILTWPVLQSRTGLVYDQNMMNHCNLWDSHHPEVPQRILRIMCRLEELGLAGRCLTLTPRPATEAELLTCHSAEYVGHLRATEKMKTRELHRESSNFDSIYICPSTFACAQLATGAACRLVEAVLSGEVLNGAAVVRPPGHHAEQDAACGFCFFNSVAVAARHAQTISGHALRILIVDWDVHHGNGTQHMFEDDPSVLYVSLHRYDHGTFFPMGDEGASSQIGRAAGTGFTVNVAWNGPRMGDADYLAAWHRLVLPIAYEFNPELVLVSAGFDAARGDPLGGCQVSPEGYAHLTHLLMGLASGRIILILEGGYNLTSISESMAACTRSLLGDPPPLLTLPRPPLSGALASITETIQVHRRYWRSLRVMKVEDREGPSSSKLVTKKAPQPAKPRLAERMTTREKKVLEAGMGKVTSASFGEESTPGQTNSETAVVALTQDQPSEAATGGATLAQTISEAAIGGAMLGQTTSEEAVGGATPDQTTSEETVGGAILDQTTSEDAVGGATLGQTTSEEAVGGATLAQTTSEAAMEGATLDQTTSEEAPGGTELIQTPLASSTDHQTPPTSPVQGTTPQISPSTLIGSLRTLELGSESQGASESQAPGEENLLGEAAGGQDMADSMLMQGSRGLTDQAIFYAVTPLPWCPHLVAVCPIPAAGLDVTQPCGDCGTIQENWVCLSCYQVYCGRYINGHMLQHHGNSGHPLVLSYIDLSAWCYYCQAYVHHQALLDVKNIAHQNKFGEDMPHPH
Procedure, shortened: as §1

[3] = human recombinant HDAC1, IC50 calculated with GraphPad Prism
[4] = human recombinant HDAC6, IC50 calculated with GraphPad Prism
[5] = human recombinant HDAC1, Fluor de Lys substrate, 30° C. 60 minutes
[6] = human recombinant HDAC6, same protocol as HDAC1

T1 sequence (Q13547 whole entry): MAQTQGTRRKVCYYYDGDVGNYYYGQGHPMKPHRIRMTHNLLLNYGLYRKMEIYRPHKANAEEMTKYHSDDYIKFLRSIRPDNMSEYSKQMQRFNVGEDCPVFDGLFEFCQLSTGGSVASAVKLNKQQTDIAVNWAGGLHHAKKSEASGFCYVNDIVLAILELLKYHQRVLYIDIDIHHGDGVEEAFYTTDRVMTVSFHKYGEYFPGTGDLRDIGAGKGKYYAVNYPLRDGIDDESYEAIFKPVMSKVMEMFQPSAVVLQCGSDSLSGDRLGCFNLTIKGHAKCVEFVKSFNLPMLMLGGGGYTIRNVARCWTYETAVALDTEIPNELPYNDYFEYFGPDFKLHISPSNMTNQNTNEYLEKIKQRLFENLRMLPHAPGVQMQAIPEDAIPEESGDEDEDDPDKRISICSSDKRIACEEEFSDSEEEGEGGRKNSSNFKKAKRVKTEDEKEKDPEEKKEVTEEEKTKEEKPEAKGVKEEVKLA

| SMILES | IC50 [1, 3] [nM] | HDAC6 selectivity (fold) ([2]; HDAC1 IC50 / HDAC6 IC50) | IC50 [2, 4] [nM] | IC50 [1, 5] [nM] | HDAC6 selectivity (fold) ([2]; HDAC6 over HDAC1) | IC50 [2, 6] [nM] |
| --- | --- | --- | --- | --- | --- | --- |
| FC(F)(F)c1nnc(-c2ccc(Cn3nnc(-c4cccs4)n3)nc2)o1 [Compound 4233] | > 50000 | 3846 | 13 | – | – | – |
| Cc1nc(-c2ccccc2)cn1Cc1ccc(-c2nnc(C(F)F)o2)cn1 [Compound 3945, 2-(difluoromethyl)-5-(6-((2-methyl-4-phenyl-1H-imidazol-1-yl)methyl)pyridin-3-yl)-1,3,4-oxadiazole] | > 50000 | 258 | 193 | – | – | – |
| CC(C)N1CCC(c2cn(Cc3ccc(-c4nnc(C(F)F)o4)cn3)nn2)CC1 [Compound 3808, 2-(difluoromethyl)-5-(6-((4-(1-isopropylpiperidin-4-yl)-1H-1,2,3-triazol-1-yl)methyl)pyridin-3-yl)-1,3,4-oxadiazole] | > 50000 | 143 | 348 | – | – | – |
| COC(=O)N1CCC(c2cn(Cc3ccc(-c4nnc(C(F)F)o4)cn3)nn2)CC1 [Compound 3891, Methyl4-(1-((5-(5-(difluoromethyl)-1,3,4-oxadiazol-2-yl)pyridin-2-yl)methyl)-1H-1,2,3-triazol-4-yl)piperidin-1-carboxylate] | > 50000 | 287 | 174 | – | – | – |
| Fc1cc(-c2nnc(C(F)F)o2)ccc1Cn1cc(-c2cccc3cc[nH]c23)nn1 [Compound 4082, 2-(4-((4-(1H-indol-7-yl)-1H-1,2,3-triazol-1-yl)methyl)-3-fluorophenyl)-5-(difluoromethyl)-1,3,4-oxadiazole] | > 50000 | 349 | 143 | – | – | – |
| Cc1ccncc1-c1cn(Cc2ccc(-c3nnc(C(F)F)o3)cn2)nn1 [Compound 4181, 2-(difluoromethyl)-5-(6-((4-(4-methylpyridin-3-yl)-1H-1,2,3-triazol-1-yl)methyl)pyridin-3-yl)-1,3,4-oxadiazole] | > 50000 | 1400 | 35.7 | – | – | – |
| CN(C)Cc1cccc(-c2cn(Cc3ccc(-c4nnc(C(F)F)o4)cn3)nn2)c1 [Compound 3915, 1-(3-(1-((5-(5-(difluoromethyl)-1,3,4-oxadiazol-2-yl)pyridin-2-yl)methyl)-1H-1,2,3-triazol-4-yl)phenyl)-N,N-dimethylmethanamine] | > 50000 | 1308 | 38.2 | – | – | – |
| CCOC(=O)N1CCC(c2cn(Cc3ccc(-c4nnc(C(F)F)o4)cn3)nn2)CC1 [Compound 3892, Ethyl4-(1-((5-(5-(difluoromethyl)-1,3,4-oxadiazol-2-yl)pyridin-2-yl)methyl)-1H-1,2,3-triazol-4-yl)piperidin-1-carboxylate] | > 50000 | 357 | 140 | – | – | – |
| Fc1cc(-c2nnc(C(F)F)o2)ccc1Cn1cc(C2(F)CCOC2)nn1 (stereo not drawn) [Compound 4283, 2-(difluoromethyl)-5-(3-fluoro-4-((4-(3-fluorotetrahydrofuran-3-yl)-1H-1,2,3-triazol-1-yl)methyl)phenyl)-1,3,4-oxadiazole] | > 50000 | 203 | 246 | – | – | – |
| Cn1c(Cc2ccc(-c3nnc(C(F)F)o3)cc2)nnc1-c1ccccc1 [Compound 3981, 2-(difluoromethyl)-5-(4-((4-methyl-5-phenyl-4H-1,2,4-triazol-3-yl)methyl)phenyl)-1,3,4-oxadiazole] | > 50000 | 41 | 1200 | – | – | – |
| O=C(O)c1ccc(-c2cn(Cc3ccc(-c4nnc(C(F)F)o4)cc3F)nn2)cc1 [Compound 3732, 4-(1-(4-(5-(difluoromethyl)-1,3,4-oxadiazol-2-yl)-2-fluorobenzyl)-1H-1,2,3-triazol-4-yl)benzoic acid] | > 50000 | 74 | 672 | – | – | – |
| CC(C)N1CCc2cc(-c3cn(Cc4ccc(-c5nnc(C(F)F)o5)cn4)nn3)ccc2C1 [Compound 4053, 2-(difluoromethyl)-5-(6-((4-(2-isopropyl-1,2,3,4-tetrahydroisoquinolin-6-yl)-1H-1,2,3-triazol-1-yl)methyl)pyridin-3-yl)-1,3,4-oxadiazole] | > 50000 | 880 | 56.8 | – | – | – |

The remaining lines, values ahead:

| IC50 [1, 3] [nM] | HDAC6 selectivity (fold) ([2]; HDAC1 IC50 / HDAC6 IC50) | IC50 [2, 4] [nM] | IC50 [1, 5] [nM] | HDAC6 selectivity (fold) ([2]; HDAC6 over HDAC1) | IC50 [2, 6] [nM] | SMILES |
| --- | --- | --- | --- | --- | --- | --- |
| – | – | – | > 50000 | 599 | 83.4 | Cc1csc(-c2cn(Cc3ccc(-c4nnc(C(F)F)o4)cc3F)nn2)n1 [Compound 17854, 2-(difluoromethyl)-5-(3-fluoro-4-((4-(4-methylthiazol-2-yl)-1H-1,2,3-triazol-1-yl)methyl)phenyl)-1,3,4-oxadiazole] |
| – | – | – | > 50000 | 1012 | 49.4 | Fc1cc(-c2nnc(C(F)F)o2)ccc1Cn1cc(-c2cn[nH]c2)nn1 [Compound 17261, 2-(4-((4-(1H-pyrazol-4-yl)-1H-1,2,3-triazol-1-yl)methyl)-3-fluorophenyl)-5-(difluoromethyl)-1,3,4-oxadiazole] |
| – | – | – | > 50000 | 512 | 97.5 | CCN1Cc2cccc(-c3cn(Cc4ccc(-c5nnc(C(F)F)o5)cc4F)nn3)c2C1 [Compound 4535, 2-(difluoromethyl)-5-(4-((4-(2-ethylisoindolin-4-yl)-1H-1,2,3-triazol-1-yl)methyl)-3-fluorophenyl)-1,3,4-oxadiazole] |
| > 50000 | 431 | 116 | – | – | – | CC(C)N1CCN(c2cc(-c3cn(Cc4ccc(-c5nnc(C(F)F)o5)cc4F)nn3)ccc2F)CC1 [Compound 4425] |
| – | – | – | > 50000 | 650 | 76.9 | CN1CCC(c2ccc(-c3cn(Cc4ncc(-c5nnc(C(F)F)o5)cc4F)nn3)cc2)CC1 [Compound 19087, 2-(difluoromethyl)-5-(5-fluoro-6-((4-(4-(1-methylpiperidin-4-yl)phenyl)-1H-1,2,3-triazol-1-yl)methyl)pyridin-3-yl)-1,3,4-oxadiazole] |
| – | – | – | > 50000 | 529 | 94.4 | CN1Cc2cccc(-c3cn(Cc4ccc(-c5nnc(C(F)F)o5)cc4F)nn3)c2C1 [Compound 4534, 2-(difluoromethyl)-5-(3-fluoro-4-((4-(2-methylisoindolin-4-yl)-1H-1,2,3-triazol-1-yl)methyl)phenyl)-1,3,4-oxadiazole] |
| > 50000 | 747 | 66.9 | – | – | – | CN1C[C@@H]2C[C@H]1CN2c1cc(-c2cn(Cc3ccc(-c4nnc(C(F)F)o4)cc3)nn2)ccc1F [Compound 4429, 2-(difluoromethyl)-5-(4-((4-(4-fluoro-3-((1S,4S)-5-methyl-2,5-diazabicyclo[2.2.1]heptan-2-yl)phenyl)-1H-1,2,3-triazol-1-yl)methyl)phenyl)-1,3,4-oxadiazole] |
| – | – | – | > 50000 | 4672 | 10.7 | CC(C)N1CC(c2cccc(-c3cn(Cc4ccc(-c5nnc(C(F)F)o5)cn4)nn3)c2)C1 [Compound 4503, 2-(difluoromethyl)-5-(6-((4-(3-(1-isopropylazetidin-3-yl)phenyl)-1H-1,2,3-triazol-1-yl)methyl)pyridin-3-yl)-1,3,4-oxadiazole] |
| – | – | – | > 50000 | 934 | 53.5 | CN(C)Cc1ccc(-c2cn(Cc3ncc(-c4nnc(C(F)F)o4)cc3F)nn2)s1 [Compound 18311, 1-(5-(1-((5-(5-(difluoromethyl)-1,3,4-oxadiazol-2-yl)-3-fluoropyridin-2-yl)methyl)-1H-1,2,3-triazol-4-yl)thiophen-2-yl)-N,N-dimethylmethanamine] |
| > 50000 | 96 | 519 | – | – | – | FC(F)c1nnc(-c2ccc(Cn3cc(-c4cccc(CN5CCC5)c4)nn3)cc2)o1 [Compound 4409, 2-(4-((4-(3-(azetidin-1-ylmethyl)phenyl)-1H-1,2,3-triazol-1-yl)methyl)phenyl)-5-(difluoromethyl)-1,3,4-oxadiazole] |

— patent publication US20230257372A1 (CHONG KUN DANG PHARMACEUTICAL CORP., priority 2020, published 2023)
